≈ marks a conversion by molar mass, not a printed value.
Columns and labels:
[1] = molecular target: T1, Gamma-aminobutyric acid receptor subunit alpha-1 (Homo sapiens, UniProt P14867); experiment: Inhibition of GABAA alpha1 receptor (unknown origin)
T1 sequence (P14867 whole entry): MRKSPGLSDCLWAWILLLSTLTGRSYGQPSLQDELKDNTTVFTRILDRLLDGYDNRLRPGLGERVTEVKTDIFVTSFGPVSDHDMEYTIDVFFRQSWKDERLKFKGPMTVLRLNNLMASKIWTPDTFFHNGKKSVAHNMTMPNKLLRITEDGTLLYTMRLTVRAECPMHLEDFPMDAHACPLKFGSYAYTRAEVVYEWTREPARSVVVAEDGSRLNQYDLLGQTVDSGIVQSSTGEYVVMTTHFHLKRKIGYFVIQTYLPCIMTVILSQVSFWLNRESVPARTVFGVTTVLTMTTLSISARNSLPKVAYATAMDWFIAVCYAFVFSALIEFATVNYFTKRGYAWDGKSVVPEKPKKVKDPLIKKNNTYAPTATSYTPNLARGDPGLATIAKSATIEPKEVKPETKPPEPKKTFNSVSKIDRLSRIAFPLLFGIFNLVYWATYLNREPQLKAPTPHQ

[2] = molecular target: T2, Gamma-aminobutyric acid receptor subunit alpha-5 (Homo sapiens, UniProt P31644); experiment: Inhibition of GABAA alpha5 receptor (unknown origin)
T2 sequence (P31644 whole entry): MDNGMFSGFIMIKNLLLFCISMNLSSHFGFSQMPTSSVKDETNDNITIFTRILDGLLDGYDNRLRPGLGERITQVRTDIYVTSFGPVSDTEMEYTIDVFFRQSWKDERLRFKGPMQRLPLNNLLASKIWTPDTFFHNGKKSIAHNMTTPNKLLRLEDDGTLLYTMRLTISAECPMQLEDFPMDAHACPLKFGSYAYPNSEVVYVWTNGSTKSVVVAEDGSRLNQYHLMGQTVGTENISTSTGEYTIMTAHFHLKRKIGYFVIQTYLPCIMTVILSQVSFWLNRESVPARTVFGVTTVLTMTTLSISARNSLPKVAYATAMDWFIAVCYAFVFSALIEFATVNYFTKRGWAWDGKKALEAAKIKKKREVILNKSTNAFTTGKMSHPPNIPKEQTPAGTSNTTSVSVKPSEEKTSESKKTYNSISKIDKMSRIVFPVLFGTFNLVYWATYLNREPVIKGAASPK

[3] = molecular target: T1, Gamma-aminobutyric acid receptor subunit alpha-1; experiment: Binding affinity to human recombinant GABAA alpha1 receptor assessed as inhibition constant incubated for 1 hrs by liquid scintillation counting analysis
[4] = molecular target: T3, Gamma-aminobutyric acid receptor subunit alpha-6 (Homo sapiens, UniProt Q16445); experiment: Binding affinity to human recombinant GABAA alpha6 receptor assessed as inhibition constant incubated for 1 hrs by liquid scintillation counting analysis
[5] = molecular target: T3, Gamma-aminobutyric acid receptor subunit alpha-6; experiment: Binding affinity to GABAA alpha6 receptor (unknown origin) assessed as inhibition constant
[6] = molecular target: T4, Gamma-aminobutyric acid receptor subunit alpha-2 (Homo sapiens, UniProt P47869); experiment: Inhibition of GABAA alpha2 receptor (unknown origin)
T4 sequence (P47869 whole entry): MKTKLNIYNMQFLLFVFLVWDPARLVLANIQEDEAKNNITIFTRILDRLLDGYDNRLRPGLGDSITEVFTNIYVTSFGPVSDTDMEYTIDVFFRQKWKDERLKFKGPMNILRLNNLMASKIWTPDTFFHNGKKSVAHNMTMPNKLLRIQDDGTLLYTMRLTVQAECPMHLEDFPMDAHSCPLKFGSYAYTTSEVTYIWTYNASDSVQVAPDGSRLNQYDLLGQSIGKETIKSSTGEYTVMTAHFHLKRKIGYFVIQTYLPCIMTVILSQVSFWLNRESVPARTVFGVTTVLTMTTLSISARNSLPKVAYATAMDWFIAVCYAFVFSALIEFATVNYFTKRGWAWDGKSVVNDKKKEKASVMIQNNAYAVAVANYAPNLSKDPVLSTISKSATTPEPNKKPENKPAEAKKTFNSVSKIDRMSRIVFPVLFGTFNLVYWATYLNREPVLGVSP

[7] = molecular target: T5, Gamma-aminobutyric acid receptor subunit alpha-3 (Homo sapiens, UniProt P34903); experiment: Inhibition of GABAA alpha3 receptor (unknown origin)
T5 sequence (P34903 whole entry): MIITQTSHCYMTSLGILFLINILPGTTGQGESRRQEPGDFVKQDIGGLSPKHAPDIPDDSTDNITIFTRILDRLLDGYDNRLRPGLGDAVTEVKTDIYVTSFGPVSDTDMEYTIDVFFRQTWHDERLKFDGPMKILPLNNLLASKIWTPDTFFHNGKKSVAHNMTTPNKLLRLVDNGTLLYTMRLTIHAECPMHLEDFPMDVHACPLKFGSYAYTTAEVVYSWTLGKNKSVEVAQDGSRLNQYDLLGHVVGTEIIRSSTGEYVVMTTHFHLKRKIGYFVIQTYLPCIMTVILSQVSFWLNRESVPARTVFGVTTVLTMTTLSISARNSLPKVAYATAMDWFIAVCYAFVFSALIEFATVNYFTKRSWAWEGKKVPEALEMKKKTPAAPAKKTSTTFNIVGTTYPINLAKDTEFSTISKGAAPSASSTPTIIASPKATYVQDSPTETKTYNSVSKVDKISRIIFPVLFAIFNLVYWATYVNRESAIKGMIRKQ

[8] = molecular target: T4, Gamma-aminobutyric acid receptor subunit alpha-2; experiment: Binding affinity to human recombinant GABAA alpha2 receptor assessed as inhibition constant incubated for 1 hrs by liquid scintillation counting analysis
[9] = molecular target: T2, Gamma-aminobutyric acid receptor subunit alpha-5; experiment: Binding affinity to human recombinant GABAA alpha5 receptor assessed as inhibition constant incubated for 1 hrs by liquid scintillation counting analysis
[10] = molecular target: T5, Gamma-aminobutyric acid receptor subunit alpha-3; experiment: Binding affinity to human recombinant GABAA alpha3 receptor assessed as inhibition constant incubated for 1 hrs by liquid scintillation counting analysis
[11] = Aqueous solubility of compound; assay type: physicochemical; settings: water
Acetylcholinesterase = Acetylcholinesterase (Homo sapiens, UniProt P22303); experiment: Inhibition of AChE (unknown origin)
[12] = molecular target: cGMP-specific 3',5'-cyclic phosphodiesterase (Homo sapiens, UniProt O76074); experiment: Inhibition of PDE5 (unknown origin)
[13] = molecular target: Amyloid-beta precursor protein (Homo sapiens) (UniProt P05067); experiment: Inhibition of amyloid beta (unknown origin) aggregation relative to control; settings: concentration not given here
Beta-secretase 1 = Beta-secretase 1 (Homo sapiens, UniProt P56817); experiment: Inhibition of BACE1 (unknown origin) expressed in HEK293 cells by FRET assay; assay type: cell-based
[14] = molecular target: T6, Protein deacetylase HDAC6 (Homo sapiens, UniProt Q9UBN7); experiment: Inhibition of HDAC6 (unknown origin)
T6 sequence (Q9UBN7 whole entry): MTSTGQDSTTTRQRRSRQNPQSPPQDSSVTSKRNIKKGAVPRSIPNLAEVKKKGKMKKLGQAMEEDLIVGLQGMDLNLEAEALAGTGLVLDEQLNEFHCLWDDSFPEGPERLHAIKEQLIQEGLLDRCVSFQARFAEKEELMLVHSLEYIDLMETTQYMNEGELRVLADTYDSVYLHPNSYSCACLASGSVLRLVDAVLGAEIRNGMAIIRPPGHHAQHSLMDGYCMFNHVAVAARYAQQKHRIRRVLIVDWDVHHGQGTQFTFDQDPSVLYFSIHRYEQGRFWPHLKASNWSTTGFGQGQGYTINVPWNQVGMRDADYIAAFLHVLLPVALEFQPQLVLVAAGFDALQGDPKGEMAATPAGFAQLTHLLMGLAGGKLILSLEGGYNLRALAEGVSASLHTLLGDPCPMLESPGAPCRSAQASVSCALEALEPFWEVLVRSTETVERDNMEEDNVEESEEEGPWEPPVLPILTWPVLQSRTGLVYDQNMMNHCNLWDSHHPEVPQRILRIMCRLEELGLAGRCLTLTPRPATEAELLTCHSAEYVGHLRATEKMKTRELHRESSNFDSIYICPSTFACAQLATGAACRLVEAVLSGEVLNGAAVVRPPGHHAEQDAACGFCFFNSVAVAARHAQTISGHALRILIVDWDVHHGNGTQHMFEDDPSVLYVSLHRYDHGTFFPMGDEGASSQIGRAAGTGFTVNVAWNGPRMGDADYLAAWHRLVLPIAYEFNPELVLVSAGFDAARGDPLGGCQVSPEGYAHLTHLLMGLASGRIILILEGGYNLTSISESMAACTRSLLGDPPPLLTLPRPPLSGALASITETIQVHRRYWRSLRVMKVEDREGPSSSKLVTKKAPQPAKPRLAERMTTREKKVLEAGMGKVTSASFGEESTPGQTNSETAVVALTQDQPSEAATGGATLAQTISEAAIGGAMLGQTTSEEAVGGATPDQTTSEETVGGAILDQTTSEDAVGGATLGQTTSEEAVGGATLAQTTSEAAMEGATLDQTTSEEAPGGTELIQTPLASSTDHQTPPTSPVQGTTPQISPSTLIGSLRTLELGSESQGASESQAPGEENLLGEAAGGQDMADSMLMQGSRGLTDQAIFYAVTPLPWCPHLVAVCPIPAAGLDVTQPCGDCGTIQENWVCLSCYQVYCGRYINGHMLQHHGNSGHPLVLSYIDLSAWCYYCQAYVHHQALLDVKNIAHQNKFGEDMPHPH

Histone deacetylase 2 = Histone deacetylase 2 (Homo sapiens, UniProt Q92769); experiment: Inhibition of HDAC2 (unknown origin)
Histone deacetylase 1 = Histone deacetylase 1 (Homo sapiens, UniProt Q13547); experiment: Inhibition of HDAC1 (unknown origin)
[15] = molecular target: 5-hydroxytryptamine receptor 2A (Rattus norvegicus) (UniProt P14842); experiment: (§1) Displacement of [3H]-ketanserin from rat 5-HT2A expressed in mouse NIH/3T3 cells assessed as inhibition constant by Cheng-Prusoff equation analysis; assay type: cell-based
[16] = molecular target: 5-hydroxytryptamine receptor 2C (Rattus norvegicus, UniProt P08909); experiment: Displacement of [3H]-ketanserin from rat 5-HT2C expressed in mouse NIH/3T3 cells assessed as inhibition constant by Cheng-Prusoff equation analysis; assay type: cell-based
[17] = molecular target: 5-hydroxytryptamine receptor 2B (Homo sapiens, UniProt P41595); experiment: Binding affinity to 5-HT2B (unknown origin) assessed as equilibrium binding constant
[18] = molecular target: 5-hydroxytryptamine receptor 2A (Rattus norvegicus, UniProt P14842); experiment: as §1; assay type: cell-based
[19] = molecular target: 5-hydroxytryptamine receptor 2B (Rattus norvegicus, UniProt P30994); experiment: Displacement of [3H]-ketanserin from rat 5-HT2B expressed in mouse NIH/3T3 cells assessed as inhibition constant by Cheng-Prusoff equation analysis; assay type: cell-based
Chain of 5-hydroxytryptamine receptor 2B (Rattus norvegicus, UniProt P30994) (P30994 whole entry): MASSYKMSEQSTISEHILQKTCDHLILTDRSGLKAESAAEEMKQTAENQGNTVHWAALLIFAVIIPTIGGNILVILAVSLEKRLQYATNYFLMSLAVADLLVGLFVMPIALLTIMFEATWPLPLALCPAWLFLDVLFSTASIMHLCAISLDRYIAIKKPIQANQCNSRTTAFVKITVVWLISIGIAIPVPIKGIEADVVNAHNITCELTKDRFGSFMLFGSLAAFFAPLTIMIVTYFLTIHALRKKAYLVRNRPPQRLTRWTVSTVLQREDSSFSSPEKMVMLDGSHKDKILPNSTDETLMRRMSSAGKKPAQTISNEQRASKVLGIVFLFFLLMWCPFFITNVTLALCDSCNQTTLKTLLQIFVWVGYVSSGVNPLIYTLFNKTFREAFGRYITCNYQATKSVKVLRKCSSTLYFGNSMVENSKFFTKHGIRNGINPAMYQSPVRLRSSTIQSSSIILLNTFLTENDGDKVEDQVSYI

Chain of Acetylcholinesterase (P22303 whole entry): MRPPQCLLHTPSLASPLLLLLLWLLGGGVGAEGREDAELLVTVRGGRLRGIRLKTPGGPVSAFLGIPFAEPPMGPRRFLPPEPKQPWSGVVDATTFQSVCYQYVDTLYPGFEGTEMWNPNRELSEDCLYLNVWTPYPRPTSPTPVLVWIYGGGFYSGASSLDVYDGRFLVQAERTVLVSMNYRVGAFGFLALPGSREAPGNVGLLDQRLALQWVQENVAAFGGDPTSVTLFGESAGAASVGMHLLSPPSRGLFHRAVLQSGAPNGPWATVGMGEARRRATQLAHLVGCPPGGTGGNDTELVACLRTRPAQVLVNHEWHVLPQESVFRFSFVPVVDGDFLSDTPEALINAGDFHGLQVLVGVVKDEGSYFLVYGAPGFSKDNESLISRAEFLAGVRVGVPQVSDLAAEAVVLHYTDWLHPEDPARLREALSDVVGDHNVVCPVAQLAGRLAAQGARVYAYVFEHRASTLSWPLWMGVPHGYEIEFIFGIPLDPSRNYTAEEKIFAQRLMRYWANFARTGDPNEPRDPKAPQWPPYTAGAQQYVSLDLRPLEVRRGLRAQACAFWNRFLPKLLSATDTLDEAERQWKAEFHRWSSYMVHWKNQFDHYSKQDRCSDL
T3 sequence (Q16445 whole entry): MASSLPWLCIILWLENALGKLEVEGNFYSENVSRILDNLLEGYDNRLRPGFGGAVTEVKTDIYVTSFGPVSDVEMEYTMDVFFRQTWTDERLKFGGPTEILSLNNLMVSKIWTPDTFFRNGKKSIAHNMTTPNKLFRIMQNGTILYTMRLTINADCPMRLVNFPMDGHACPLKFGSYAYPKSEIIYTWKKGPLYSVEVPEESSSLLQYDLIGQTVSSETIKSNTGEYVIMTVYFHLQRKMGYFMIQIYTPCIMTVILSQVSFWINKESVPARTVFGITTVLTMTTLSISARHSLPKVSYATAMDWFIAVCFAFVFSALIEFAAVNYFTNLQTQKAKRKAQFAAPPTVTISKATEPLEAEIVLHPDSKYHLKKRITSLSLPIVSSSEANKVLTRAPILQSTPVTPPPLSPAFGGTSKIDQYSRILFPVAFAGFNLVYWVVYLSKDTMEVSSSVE
Chain of 5-hydroxytryptamine receptor 2B (Homo sapiens, UniProt P41595) (P41595 whole entry): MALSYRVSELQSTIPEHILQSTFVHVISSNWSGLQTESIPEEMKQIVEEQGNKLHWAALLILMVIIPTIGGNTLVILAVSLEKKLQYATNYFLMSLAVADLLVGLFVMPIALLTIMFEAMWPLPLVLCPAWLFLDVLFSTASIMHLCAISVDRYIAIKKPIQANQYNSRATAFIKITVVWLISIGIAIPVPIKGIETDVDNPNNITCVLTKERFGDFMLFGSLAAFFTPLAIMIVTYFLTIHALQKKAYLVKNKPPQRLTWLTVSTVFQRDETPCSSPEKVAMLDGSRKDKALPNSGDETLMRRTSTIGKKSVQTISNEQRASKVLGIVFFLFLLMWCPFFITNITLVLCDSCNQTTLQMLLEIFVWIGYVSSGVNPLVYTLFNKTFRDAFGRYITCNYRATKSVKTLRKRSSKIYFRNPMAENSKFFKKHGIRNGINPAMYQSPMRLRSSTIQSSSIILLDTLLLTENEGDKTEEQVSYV
Chain of Beta-secretase 1 (P56817 whole entry): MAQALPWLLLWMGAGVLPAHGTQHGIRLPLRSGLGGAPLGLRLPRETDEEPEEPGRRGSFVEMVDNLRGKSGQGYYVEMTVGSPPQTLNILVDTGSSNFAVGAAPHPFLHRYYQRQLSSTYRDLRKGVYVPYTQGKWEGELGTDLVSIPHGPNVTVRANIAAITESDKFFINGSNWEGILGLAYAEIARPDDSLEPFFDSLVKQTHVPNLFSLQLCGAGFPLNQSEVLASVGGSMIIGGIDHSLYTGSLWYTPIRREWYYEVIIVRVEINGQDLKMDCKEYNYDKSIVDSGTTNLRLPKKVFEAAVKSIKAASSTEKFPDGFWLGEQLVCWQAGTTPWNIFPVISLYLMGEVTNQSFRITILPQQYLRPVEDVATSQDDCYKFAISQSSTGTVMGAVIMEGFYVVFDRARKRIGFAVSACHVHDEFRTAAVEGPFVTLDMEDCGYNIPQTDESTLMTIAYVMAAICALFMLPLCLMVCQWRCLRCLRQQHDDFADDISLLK
Chain of Histone deacetylase 1 (Q13547 whole entry): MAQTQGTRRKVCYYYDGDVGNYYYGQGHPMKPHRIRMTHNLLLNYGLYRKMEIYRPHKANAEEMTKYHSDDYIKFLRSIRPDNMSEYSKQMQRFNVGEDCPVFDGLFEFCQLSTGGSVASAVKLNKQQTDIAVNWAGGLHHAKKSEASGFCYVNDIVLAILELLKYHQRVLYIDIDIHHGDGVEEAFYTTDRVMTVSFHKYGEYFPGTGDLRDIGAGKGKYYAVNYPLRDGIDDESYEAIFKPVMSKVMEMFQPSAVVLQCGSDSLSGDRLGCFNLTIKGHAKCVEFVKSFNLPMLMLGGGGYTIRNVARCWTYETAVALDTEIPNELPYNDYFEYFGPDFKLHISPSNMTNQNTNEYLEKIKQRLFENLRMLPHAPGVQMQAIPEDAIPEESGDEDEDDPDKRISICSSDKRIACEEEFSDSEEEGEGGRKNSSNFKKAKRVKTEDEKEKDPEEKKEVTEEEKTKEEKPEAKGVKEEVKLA
Chain of Histone deacetylase 2 (Q92769 whole entry): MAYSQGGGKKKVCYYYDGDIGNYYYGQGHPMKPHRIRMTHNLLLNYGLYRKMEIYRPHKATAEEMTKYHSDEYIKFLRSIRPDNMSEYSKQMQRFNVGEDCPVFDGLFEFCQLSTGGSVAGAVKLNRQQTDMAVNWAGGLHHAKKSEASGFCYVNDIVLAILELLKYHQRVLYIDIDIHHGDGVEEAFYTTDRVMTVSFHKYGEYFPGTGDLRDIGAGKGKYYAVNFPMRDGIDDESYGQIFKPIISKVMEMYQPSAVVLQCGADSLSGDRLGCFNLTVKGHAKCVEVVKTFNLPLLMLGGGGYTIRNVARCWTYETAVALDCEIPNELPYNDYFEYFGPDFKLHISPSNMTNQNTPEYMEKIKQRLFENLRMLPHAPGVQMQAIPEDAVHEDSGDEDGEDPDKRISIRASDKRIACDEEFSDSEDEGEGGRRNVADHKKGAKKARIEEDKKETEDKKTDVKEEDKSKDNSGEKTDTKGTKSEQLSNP
Chain of 5-hydroxytryptamine receptor 2A (P14842 whole entry): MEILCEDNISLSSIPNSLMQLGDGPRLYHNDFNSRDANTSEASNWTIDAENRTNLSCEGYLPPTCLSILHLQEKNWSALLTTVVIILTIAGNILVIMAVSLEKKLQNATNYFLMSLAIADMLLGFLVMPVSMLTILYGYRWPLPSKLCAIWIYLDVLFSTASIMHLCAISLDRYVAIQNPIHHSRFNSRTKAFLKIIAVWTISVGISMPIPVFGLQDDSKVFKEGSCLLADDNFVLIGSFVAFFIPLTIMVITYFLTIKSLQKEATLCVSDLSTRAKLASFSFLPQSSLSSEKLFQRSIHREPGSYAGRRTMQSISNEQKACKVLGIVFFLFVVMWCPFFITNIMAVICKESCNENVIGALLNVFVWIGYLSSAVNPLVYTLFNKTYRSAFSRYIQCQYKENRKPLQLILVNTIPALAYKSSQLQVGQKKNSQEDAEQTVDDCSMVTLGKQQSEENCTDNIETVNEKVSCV
Chain of 5-hydroxytryptamine receptor 2A (Rattus norvegicus) (P14842 whole entry): as above
Chain of Amyloid-beta precursor protein (Homo sapiens) (P05067 whole entry): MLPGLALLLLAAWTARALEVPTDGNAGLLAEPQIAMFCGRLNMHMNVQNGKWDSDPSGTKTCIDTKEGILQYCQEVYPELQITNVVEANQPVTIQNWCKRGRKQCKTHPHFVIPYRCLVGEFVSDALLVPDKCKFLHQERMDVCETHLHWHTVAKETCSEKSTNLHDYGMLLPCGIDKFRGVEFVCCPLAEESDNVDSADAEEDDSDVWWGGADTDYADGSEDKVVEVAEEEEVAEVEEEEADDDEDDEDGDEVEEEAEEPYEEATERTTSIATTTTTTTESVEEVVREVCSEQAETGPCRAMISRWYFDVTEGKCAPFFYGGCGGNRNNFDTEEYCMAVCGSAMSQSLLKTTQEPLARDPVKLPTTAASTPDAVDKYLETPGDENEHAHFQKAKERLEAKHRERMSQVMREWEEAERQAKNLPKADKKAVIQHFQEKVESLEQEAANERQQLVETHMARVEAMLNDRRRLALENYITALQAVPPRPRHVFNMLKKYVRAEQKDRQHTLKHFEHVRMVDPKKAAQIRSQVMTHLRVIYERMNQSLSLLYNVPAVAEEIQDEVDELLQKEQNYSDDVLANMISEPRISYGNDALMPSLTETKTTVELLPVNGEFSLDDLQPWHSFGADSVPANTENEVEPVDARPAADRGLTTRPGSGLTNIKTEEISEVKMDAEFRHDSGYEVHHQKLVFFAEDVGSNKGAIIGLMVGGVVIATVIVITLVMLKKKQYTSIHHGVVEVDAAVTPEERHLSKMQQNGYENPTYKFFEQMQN

Compound `c1ccc2c(c1)[nH]c1cnc3c4ccncc4[nH]c3c12` has an IC50 [1] of 3 nM, an IC50 [2] of 240 nM and a Ki [3] of 3 nM. The Ki [4] was > 10000 nM, the Ki [5] was > 10000 nM and the IC50 [6] was 24 nM. It also gave an IC50 [7] of 31 nM, a Ki [8] of 24 nM and a Ki [9] of 240 nM. It also gave a Ki [10] of 31 nM.
Compound `COc1ccc([C@@H]2c3[nH]c4ccccc4c3C[C@H]3C(=O)N(CCC4CCN(Cc5ccccc5)CC4)CC(=O)N23)cc1` has a solubility [11] of 420 µg/mL (≈ 746 µM), an IC50 (Acetylcholinesterase) of 15 nM and an IC50 [12] of 3200 nM.
With `O=C(/C=C/c1ccc(O)c(O)c1)NCc1cn(C[C@@H]2Cc3c([nH]c4ccccc34)CN2)nn1` the inhibition [13] was 30% and the IC50 (Beta-secretase 1) was > 50000 nM.
For `O=C(CCCN1CCC(N2CC(=O)N3C(Cc4c([nH]c5ccccc45)C3c3ccc4c(c3)OCO4)C2=O)CC1)NO` (configuration not stated), the IC50 [14] was > 2500 nM, the IC50 (Histone deacetylase 2) was > 2500 nM and the IC50 (Histone deacetylase 1) was > 2500 nM. The IC50 [12] was 140 nM.
With `COc1ccc([C@@H]2c3[nH]c4ccccc4c3C[C@@H]3C(=O)N(CCC4CCN(Cc5ccccc5)CC4)CC(=O)N23)cc1` the solubility [11] was 1400 µg/mL (≈ 2490 µM), the IC50 (Acetylcholinesterase) was 31 nM and the IC50 [12] was 200 nM.
For `COc1cccc2[nH]c3c(c12)CCNC3`, the K [15] was < 0.18 µM.
In the case of `COc1ccc(CC2NCCc3c2[nH]c2c(C)c(C)ccc32)c(Br)c1OC` (configuration not stated), the Ki [16] is reported as 8 nM, the Kb [17] is reported as 0.08 nM and the Ki [18] is reported as 9 nM. For the same compound, the Ki [19] was 0.08 nM.

Reference: ChEMBL document CHEMBL5233266, “β-Carboline as a Privileged Scaffold for Multitarget Strategies in Alzheimer's Disease Therapy” (J Med Chem, 2021)
